Experimental data published in US20190241569A1, “3-(ARYL OR HETEROARYL) METHYLENEINDOLIN-2-ONE DERIVATIVES AS INHIBITORS OF CANCER STEM CELL PATHWAY KINASES FOR THE TREATMENT OF CANCER” (Boston Biomedical, Inc., priority 2013, published 2019).
Read-outs that look alike come from different tables or passages of the source.

Columns and labels:
Type in all cases: cell-based
A549 = assay: Bulk cancer cells, Cell Titer-Glo 72 hours (Test Example 2); settings: Homo sapiens
Protocol: (§1) Tubes of 3× drug (60 uM in 500 uL complete media) were prepared from 5 mM stock solutions in DMSO. […] To treat cells, 50 uL of drug from the dilution plate was removed and added to the cell plates. […] Cells were harvested 72 hours after drug addition using Cell Titer-Glo (Promega) and luminescence measured on a plate reader.

ACHN = assay: as above; settings: Homo sapiens, ACHN, 72 h
Protocol: as §1

FaDu = assay: as above; settings: Homo sapiens
Protocol: as §1

FaDu CSC = assay: Cancer stem cells, Cell Titer-Glo 72 hours (Test Example 3); settings: Homo sapiens, FaDu, 72 h
A549 CSC = assay: as above; settings: Homo sapiens
ACHN CSC = assay: as above; settings: Homo sapiens, ACHN, 72 h
p-AMPK Thr172 = assay: Kinase inhibition, Western blot in HeLa cells (Test Example 5); settings: Homo sapiens, 6 hours, DMSO = 100, read-out: p-AMPK Relative Intensity (%)
Protocol: (§2) HeLa cells were treated with 5 uM of the indicated compound for 6 hours. Following compound incubation, cells were washed twice with ice-cold PBS and lysed in lysis buffer (50 mM HEPES, pH 7.5, 1% Nonidet P40, 150 mM NaCl, 1 mM EDTA, 1× protease inhibitor cocktail (Promega)). 30 micrograms of soluble protein was separated by SDS-PAGE and transferred to PVDF membranes. Primary antibodies against p-AMPK Thr172, p-RPS6 Ser235/236, p-RPS6 Ser240/244, and Tubulin (Cell Signaling Technology) were used. The antigen-antibody complexes were visualized by enhanced chemiluminescence (BioRad). The results are shown below in Tables 17A-17E.

p-RPS6 Ser235/236 = assay: as above; settings: Homo sapiens, 6 hours, DMSO = 100, read-out: p-RPS6 Ser235/236 Relative Intensity (%)
Protocol: as §2

p-RPS6 Ser240/244 = assay: as above; settings: Homo sapiens, 6 hours, DMSO = 100, read-out: p-RPS6 Ser240/244 Relative Intensity (%)
Protocol: as §2

Row | Structure (SMILES) | IC50 (A549) | IC50 (ACHN) | IC50 (FaDu) | IC50 (FaDu CSC) | IC50 (A549 CSC) | IC50 (ACHN CSC) | activity at 5 µM (p-AMPK Thr172; 5 uM) | activity at 5 µM (p-RPS6 Ser235/236; 5 uM) | activity at 5 µM (p-RPS6 Ser240/244; 5 uM) | activity at 5 µM (p-AMPK Thr172; 5 uM compound, Western blot) | activity at 5 µM (p-RPS6 Ser235/236; 5 uM compound, Western blot) | activity at 5 µM (p-RPS6 Ser240/244; 5 uM compound, Western blot)
1 | Cc1[nH]c(/C=C2\C(=O)Nc3cc(-c4csc(-c5ccccc5)n4)ccc32)c(C)c1C(=O)N1CCN(C)CC1 [Example 8] | 26300 nM | 11600 nM | 4740 nM | 1030 nM | 1220 nM | 390 nM | 150% | 33% | 73% | – | – | –
2 | CCN(CC)CCNC(=O)c1c(C)[nH]c(/C=C2\C(=O)Nc3c2cccc3-c2csc(-c3ccccc3)n2)c1C [Example 9] | 1960 nM | 3200 nM | 3750 nM | 1260 nM | 1570 nM | 280 nM | 144% | 2% | 32% | – | – | –
3 | Cc1[nH]c(/C=C2\C(=O)Nc3c2cccc3-c2csc(-c3ccccc3)n2)c(C)c1C(=O)N1CCN(C)CC1 [Example 10] | 5410 nM | 15200 nM | 5410 nM | 2990 nM | 4190 nM | 500 nM | 122% | 2% | 32% | – | – | –
4 | CCN(CC)CCNC(=O)c1c(C)[nH]c(/C=C2\C(=O)Nc3cc(-c4oc(-c5ccccc5)nc4C)ccc32)c1C [Example 37] | 7490 nM | 2970 nM | 3550 nM | 8090 nM | – | 1650 nM | 151% | 4% | 43% | – | – | –
5 | CCN(CC)CCNC(=O)c1c(C)[nH]c(/C=C2\C(=O)Nc3ccc(-c4ccc(-c5ccccc5)o4)cc32)c1C [Example 56, (Z)-N-(2-(diethylamino)ethyl)-2,4-dimethyl-5-((2-oxo-5-(5-phenylfuran-2-yl)indolin-3-ylidene)methyl)-1H-pyrrole-3-carboxamide] | 4300 nM | 3660 nM | 3090 nM | 1410 nM | 8250 nM | 250 nM | 144% | 19% | 64% | – | – | –
6 | CCN(CC)CCNC(=O)c1c(C)[nH]c(/C=C2\C(=O)Nc3cccc(-c4ccc(-c5ccccc5)cc4)c32)c1C [Example 109] | 5090 nM | 1600 nM | 1110 nM | 280 nM | 4320 nM | 330 nM | 8% | 2% | 23% | – | – | –
7 | CCN(CC)CCNC(=O)c1c(C)[nH]c(/C=C2\C(=O)Nc3ccc(-c4csc(-c5ccccc5)n4)nc32)c1C [Example 118] | 1740 nM | 1370 nM | 1370 nM | 110 nM | 620 nM | 970 nM | 35% | 5% | 42% | – | – | –
8 | Cc1[nH]c(/C=C2\C(=O)Nc3ccc(-c4csc(-c5ccccc5)n4)nc32)c(C)c1C(=O)NCCN1CCCC1 [Example 119] | 1430 nM | 1520 nM | 1730 nM | 170 nM | 2470 nM | 400 nM | 41% | 13% | 51% | – | – | –
9 | CCN(CC)CCNC(=O)c1c(C)[nH]c(/C=C2\C(=O)Nc3ccc(-c4csc(-c5ccc(O)cc5)n4)cc32)c1C [Example 126] | 3060 nM | 1380 nM | 700 nM | 1850 nM | 6990 nM | 500 nM | 47% | 79% | 88% | – | – | –
10 | Cc1cc(C)c(/C=C2\C(=O)Nc3ccc(-c4csc(C5CCCNC5)n4)cc32)[nH]1 (centres unmarked) [Example 140] | 1340 nM | 1640 nM | 1580 nM | 480 nM | 1700 nM | 50 nM | 69% | 6% | 34% | – | – | –
11 | CCN(CC)CCNC(=O)c1c(C)[nH]c(/C=C2\C(=O)Nc3ccc(-c4ccc(-c5ccccc5)cn4)cc32)c1C [Example 197] | 2020 nM | 5380 nM | 2720 nM | 4810 nM | 3790 nM | 650 nM | 118% | 61% | 82% | – | – | –
12 | CCN(CC)CCNC(=O)c1c(C)[nH]c(/C=C2\C(=O)Nc3ccc(-c4cccnc4)cc32)c1C [Example 210] | 840 nM | 1310 nM | 2820 nM | 4310 nM | 3900 nM | 1060 nM | 8% | 1% | 31% | – | – | –
13 | Cc1cc(C)c(/C=C2\C(=O)Nc3ccc(-c4ccc5cn[nH]c(=O)c5c4)cc32)[nH]1 [Example 240] | 1400 nM | 1120 nM | 2550 nM | 2960 nM | 3000 nM | 260 nM | 39% | 1% | 24% | – | – | –
14 | Cc1cc(C)c(/C=C2\C(=O)Nc3cccc(-c4ccncc4)c32)[nH]1 [Example 272] | 13100 nM | 19800 nM | 19600 nM | 12200 nM | 30300 nM | 16200 nM | – | – | – | 75% | 50% | 47%
15 | Cc1cc(C)c(/C=C2\C(=O)Nc3cccc(-c4ccc5cc[nH]c5c4)c32)[nH]1 [Example 273] | 16600 nM | 20400 nM | 16400 nM | – | 20200 nM | 18900 nM | – | – | – | 27% | 36% | 35%
16 | COc1ncc(-c2cccc3c2NC(=O)/C3=C\c2[nH]c(C)cc2C)cn1 [Example 275] | 17700 nM | 21900 nM | 20800 nM | – | 34700 nM | 17500 nM | – | – | – | 96% | 57% | 54%
17 | Cc1cncc(-c2cccc3c2NC(=O)/C3=C\c2[nH]c(C)cc2C)c1 [Example 280] | 21200 nM | 16000 nM | 26400 nM | – | 32000 nM | 32000 nM | – | – | – | 103% | 74% | 75%
